Assays:
[1] = molecular target: T1, Human Neuropeptide Y2 Receptor (Homo sapiens, UniProt P49146); assay: Radioligand binding competition assay (RLB); details: Table 3, 125I-PYY(1-36) competition; read-out: Ki
T1 construct: purchased CHEMICON HTS066M
T1 sequence (P49146 1-381): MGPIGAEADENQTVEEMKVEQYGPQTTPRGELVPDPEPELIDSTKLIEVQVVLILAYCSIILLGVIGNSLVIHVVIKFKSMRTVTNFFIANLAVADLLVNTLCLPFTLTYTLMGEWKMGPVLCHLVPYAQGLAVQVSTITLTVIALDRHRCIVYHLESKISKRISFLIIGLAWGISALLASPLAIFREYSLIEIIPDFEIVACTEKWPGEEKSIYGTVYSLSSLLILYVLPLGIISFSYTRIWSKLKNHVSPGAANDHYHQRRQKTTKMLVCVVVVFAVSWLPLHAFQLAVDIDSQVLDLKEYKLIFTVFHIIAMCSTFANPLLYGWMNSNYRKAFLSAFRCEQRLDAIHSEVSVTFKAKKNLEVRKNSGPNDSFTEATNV
Outline: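 Filtration competition binding on membranes from cells expressing the receptor, 0.5 μg protein/well, in 50 mM HEPES, 5 mM MgCl2, 1 mM CaCl2, pH 7.4, with 0.2% ovalbumin. Incubation ran 2 h at room temperature, followed by GF/C filtration and scintillation counting. IC50 came from nonlinear sigmoidal fits.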

Solubility determination = details: for Sol6: pH 6; for Sol7: pH 7
Outline: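 First, TFA-salt peptide was added to 0.1 M sodium diphosphate (pH 6.4 or 7.0) to 10 mg/ml and shaken 2 h at room temperature. Next, insoluble material was filtered off. Finally, filtrate and control, each 1 mg/ml in 50% acetonitrile, were compared by reversed-phase chromatography.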

Row | SMILES | Ki [1] | Sol6 (Solubility determination) | Sol7 (Solubility determination)
1 | CC(C)CC(=O)N[C@@H](C)C(=O)N1CCC[C@H]1C(=O)N[C@@H](CCC(=O)O)C(=O)N[C@@H](CCCCNC(=O)CCCCCNC(=O)CC[C@H](NC(=O)CCCCCCCCCCCCCCCCC(=O)O)C(=O)O)C(=O)N1CCC[C@H]1C(=O)N[C@@H](CCC(=O)O)C(=O)N[C@@H](CCC(=O)O)C(=O)N[C@@H](CC(=O)O)C(=O)N[C@@H](C)C(=O)N[C@H](C(=O)N1CCC[C@H]1C(=O)N[C@@H](CCC(=O)O)C(=O)N[C@@H](CCC(=O)O)C(=O)N[C@@H](CC(C)C)C(=O)N[C@@H](CCC(N)=O)C(=O)N[C@@H](CCCNC(=N)N)C(=O)N[C@@H](Cc1ccc(O)cc1)C(=O)N[C@@H](Cc1ccc(O)cc1)C(=O)N[C@H](C(=O)N[C@@H](CC(C)C)C(=O)N[C@@H](CC(C)C)C(=O)N[C@@H](CCCNC(=N)N)C(=O)N[C@@H](Cc1c[nH]cn1)C(=O)N[C@@H](Cc1ccc(O)cc1)C(=O)N[C@@H](Cc1ccc(O)cc1)C(=O)N[C@@H](CC(N)=O)C(=O)N[C@@H](Cc1c[nH]c2ccccc12)C(=O)N[C@@H](CC(C)C)C(=O)N[C@H](C(=O)N[C@@H](CCCNC(=N)N)C(=O)N[C@@H](CCC(N)=O)C(=O)N[C@@H](CCCNC(=N)N)C(=O)N[C@@H](Cc1ccc(O)cc1)C(N)=O)[C@@H](C)O)C(C)C)[C@@H](C)O [Compound 49, N{alpha-4}-(3-methylbutanoyl)-N{epsilon-7}-(6-[(4S)-4-carboxy-4-(17-carboxyheptadecanamido)butanamido]hexanoyl)-[4A,7K,9E,13T,18Q,22V,23L,28Y,30W,31L]-hPYY(4-36)] | 11.6 nM | >10.0 mg/mL | >10.0 mg/mL
2 | CC(C)CC(=O)N[C@@H](C)C(=O)N1CCC[C@H]1C(=O)N[C@@H](CCC(=O)O)C(=O)N[C@@H](CCCCNC(=O)CCCCCNC(=O)CC[C@H](NC(=O)CCCCCCCCCCCCCCCCC(=O)O)C(=O)O)C(=O)N1CCC[C@H]1C(=O)N[C@@H](CCC(=O)O)C(=O)N[C@@H](CCC(=O)O)C(=O)N[C@@H](CC(=O)O)C(=O)N[C@@H](C)C(=O)N[C@H](C(=O)N1CCC[C@H]1C(=O)N[C@@H](CCC(=O)O)C(=O)N[C@@H](CCC(=O)O)C(=O)N[C@@H](CC(C)C)C(=O)N[C@@H](CCC(N)=O)C(=O)N[C@@H](CCCNC(=N)N)C(=O)N[C@@H](Cc1ccc(O)cc1)C(=O)N[C@@H](Cc1ccc(O)cc1)C(=O)N[C@H](C(=O)N[C@@H](CCC(N)=O)C(=O)N[C@@H](CC(C)C)C(=O)N[C@@H](CCCNC(=N)N)C(=O)N[C@@H](Cc1c[nH]cn1)C(=O)N[C@@H](Cc1ccc(O)cc1)C(=O)N[C@@H](Cc1ccc(O)cc1)C(=O)N[C@@H](CC(N)=O)C(=O)N[C@@H](Cc1c[nH]c2ccccc12)C(=O)N[C@@H](CC(C)C)C(=O)N[C@H](C(=O)N[C@@H](CCCNC(=N)N)C(=O)N[C@@H](CCC(N)=O)C(=O)N[C@@H](CCCNC(=N)N)C(=O)N[C@@H](Cc1ccc(O)cc1)C(N)=O)[C@@H](C)O)C(C)C)[C@@H](C)O [Compound 51, N{alpha-4}-(3-methylbutanoyl)-N{epsilon-7}-(6-[(4S)-4-carboxy-4-(17-carboxyheptadecanamido)butanamido]hexanoyl)-[4A,7K,9E,13T,18Q,22V,23Q,28Y,30W,31L]-hPYY(4-36)] | 2.59 nM | 9.6 mg/mL | 9.7 mg/mL
3 | CC(C)CC(=O)N[C@@H](C)C(=O)N1CCC[C@H]1C(=O)N[C@@H](CCC(=O)O)C(=O)N[C@@H](CCCCNC(=O)CCCCCNC(=O)CC[C@H](NC(=O)CCCCCCCCCCCCCCCCC(=O)O)C(=O)O)C(=O)N1CCC[C@H]1C(=O)N[C@@H](CCC(=O)O)C(=O)N[C@@H](CCC(=O)O)C(=O)N[C@@H](CC(=O)O)C(=O)N[C@@H](C)C(=O)N[C@H](C(=O)N1CCC[C@H]1C(=O)N[C@@H](CCC(=O)O)C(=O)N[C@@H](CCC(=O)O)C(=O)N[C@@H](C)C(=O)N[C@@H](CCC(N)=O)C(=O)N[C@@H](CCCNC(=N)N)C(=O)N[C@@H](Cc1ccc(O)cc1)C(=O)N[C@@H](Cc1ccc(O)cc1)C(=O)N[C@H](C(=O)N[C@@H](CO)C(=O)N[C@@H](CC(C)C)C(=O)N[C@@H](CCCNC(=N)N)C(=O)N[C@@H](Cc1c[nH]cn1)C(=O)N[C@@H](Cc1ccc(O)cc1)C(=O)N[C@@H](Cc1ccc(O)cc1)C(=O)N[C@@H](CC(N)=O)C(=O)N[C@@H](Cc1c[nH]c2ccccc12)C(=O)N[C@@H](CC(C)C)C(=O)N[C@H](C(=O)N[C@@H](CCCNC(=N)N)C(=O)N[C@@H](CCC(N)=O)C(=O)N[C@@H](CCCNC(=N)N)C(=O)N[C@@H](Cc1ccc(O)cc1)C(N)=O)[C@@H](C)O)C(C)C)[C@@H](C)O [Compound 54, N{alpha-4}-(3-methylbutanoyl)-N{epsilon-7}-(6-[(4S)-4-carboxy-4-(17-carboxyheptadecanamido)butanamido]hexanoyl)-[4A,7K,9E,13T,17A,18Q,22V,28Y,30W,31L]-hPYY(4-36)] | 8.97 nM | 10.0 mg/mL | 10.0 mg/mL
4 | CC(C)CC(=O)N[C@@H](C)C(=O)N1CCC[C@H]1C(=O)N[C@@H](C)C(=O)N[C@@H](CCCCNC(=O)CCCCCNC(=O)CC[C@H](NC(=O)CCCCCCCCCCCCCCCCC(=O)O)C(=O)O)C(=O)N1CCC[C@H]1C(=O)N[C@@H](CCC(=O)O)C(=O)N[C@@H](CCC(=O)O)C(=O)N[C@@H](CC(=O)O)C(=O)N[C@@H](C)C(=O)N[C@H](C(=O)N1CCC[C@H]1C(=O)N[C@@H](CCC(=O)O)C(=O)N[C@@H](CCC(=O)O)C(=O)N[C@@H](C)C(=O)N[C@@H](CCC(N)=O)C(=O)N[C@@H](CCCNC(=N)N)C(=O)N[C@@H](Cc1ccc(O)cc1)C(=O)N[C@@H](Cc1ccc(O)cc1)C(=O)N[C@H](C(=O)N[C@@H](CO)C(=O)N[C@@H](CC(C)C)C(=O)N[C@@H](CCCNC(=N)N)C(=O)N[C@@H](Cc1c[nH]cn1)C(=O)N[C@@H](Cc1ccc(O)cc1)C(=O)N[C@@H](Cc1ccc(O)cc1)C(=O)N[C@@H](CC(N)=O)C(=O)N[C@@H](Cc1c[nH]c2ccccc12)C(=O)N[C@@H](CC(C)C)C(=O)N[C@H](C(=O)N[C@@H](CCCNC(=N)N)C(=O)N[C@@H](CCC(N)=O)C(=O)N[C@@H](CCCNC(=N)N)C(=O)N[C@@H](Cc1ccc(O)cc1)C(N)=O)[C@@H](C)O)C(C)C)[C@@H](C)O [Compound 57, N{alpha-4}-(3-methylbutanoyl)-N{epsilon-7}-(6-[(4S)-4-carboxy-4-(17-carboxyheptadecanamido)butanamido]hexanoyl)-[4A,6A,7K,9E,13T,17A,18Q,22V,28Y,30W,31L]-hPYY(4-36)] | 2.07 nM | 8.3 mg/mL | 9.6 mg/mL
5 | CC(C)CC(=O)N[C@@H](C)C(=O)N1CCC[C@H]1C(=O)N[C@@H](CCC(=O)O)C(=O)N[C@@H](CCCCNC(=O)CCCCCNC(=O)CC[C@H](NC(=O)CCCCCCCCCCCCCCCCC(=O)O)C(=O)O)C(=O)N1CCC[C@H]1C(=O)N[C@@H](CCC(=O)O)C(=O)N[C@@H](CCC(=O)O)C(=O)N[C@@H](CC(=O)O)C(=O)N[C@@H](C)C(=O)N[C@H](C(=O)N1CCC[C@H]1C(=O)N[C@@H](CCC(=O)O)C(=O)N[C@@H](CCC(=O)O)C(=O)N[C@H](C(=O)N[C@@H](CCC(N)=O)C(=O)N[C@@H](CCCNC(=N)N)C(=O)N[C@@H](Cc1ccc(O)cc1)C(=O)N[C@@H](Cc1ccc(O)cc1)C(=O)N[C@H](C(=O)N[C@@H](CO)C(=O)N[C@@H](CC(C)C)C(=O)N[C@@H](CCCNC(=N)N)C(=O)N[C@@H](Cc1c[nH]cn1)C(=O)N[C@@H](Cc1ccc(O)cc1)C(=O)N[C@@H](Cc1ccc(O)cc1)C(=O)N[C@@H](CC(N)=O)C(=O)N[C@@H](Cc1c[nH]c2ccccc12)C(=O)N[C@@H](CC(C)C)C(=O)N[C@H](C(=O)N[C@@H](CCCNC(=N)N)C(=O)N[C@@H](CCC(N)=O)C(=O)N[C@@H](CCCNC(=N)N)C(=O)N[C@@H](Cc1ccc(O)cc1)C(N)=O)[C@@H](C)O)C(C)C)C(C)C)[C@@H](C)O [Compound 58, N{alpha-4}-(3-methylbutanoyl)-N{epsilon-7}-(6-[(4S)-4-carboxy-4-(17-carboxyheptadecanamido)butanamido]hexanoyl)-[4A,7K,9E,13T,17V,18Q,22V,28Y,30W,31L]-hPYY(4-36)] | 3.46 nM | 8.6 mg/mL | 8.8 mg/mL
